According to ChEMBL document CHEMBL5331107 (J Med Chem, 2023):

Assays:
[1] = test system: Human immunodeficiency virus 1; format: functional, organism-based; settings: Human immunodeficiency virus 1, MT4, 120 h
[2] = Cytotoxicity against human MT4 cells assessed as reduction in cell viability incubated for 5 days by MTT assay; format: toxicity, cell-based; settings: time 5 day
[3] = test system: Human immunodeficiency virus 1; experiment: Antiviral activity against NNRTI-resistant HIV-1 harboring E138K mutant infected in human MT4 cells assessed as protection against virus-induced cytopathic effect incubated for 5 days by MTT assay; format: functional, organism-based; settings: Human immunodeficiency virus 1, MT4, 120 h
[4] = test system: Human immunodeficiency virus 1; experiment: Antiviral activity against NNRTI-resistant HIV-1 harboring K103N mutant infected in human MT4 cells assessed as protection against virus-induced cytopathic effect incubated for 5 days by MTT assay; format: functional, organism-based; settings: Human immunodeficiency virus 1, MT4, 120 h
[5] = test system: Human immunodeficiency virus 1; experiment: Antiviral activity against NNRTI-resistant HIV-1 harboring L100I mutant infected in human MT4 cells assessed as protection against virus-induced cytopathic effect incubated for 5 days by MTT assay; format: functional, organism-based; settings: Human immunodeficiency virus 1, MT4, 120 h
[6] = test system: Human immunodeficiency virus 1; format: functional, organism-based; settings: Human immunodeficiency virus 1, MT4, 120 h; remark: listed apart in the source
[7] = test system: Human immunodeficiency virus 1; format: functional, organism-based; settings: Human immunodeficiency virus 1, MT4, 120 h; remark: listed apart in the source
in vitro [8] = settings: human, MT4 cells
Description: Selectivity index, ratio of CC50 for cytotoxicity against human MT4 cells to EC50 for antiviral activity against NNRTI-resistant HIV-1 harboring E138K mutant infected in human MT4 cells

[9] = test system: Human immunodeficiency virus 1; experiment: microbe, parasite or virus in culture; settings: Human immunodeficiency virus 1, IIIB, MT4, 120 h
Description: Antiviral activity against wild type HIV-1 IIIB infected in human MT4 cells assessed as protection against virus-induced cytopathic effect incubated for 5 days by MTT assay

in vitro [10] = settings: human, MT4 cells; remark: listed apart in the source
Description: Selectivity index, ratio of CC50 for cytotoxicity against human MT4 cells to EC50 for antiviral activity against wildtype HIV-1 IIIB infected in human MT4 cells

in vitro [11] = settings: human, MT4 cells; remark: listed apart in the source
Description: Selectivity index, ratio of CC50 for cytotoxicity against human MT4 cells to EC50 for antiviral activity against NNRTI-resistant HIV-1 harboring K103N mutant infected in human MT4 cells

[12] = target: Human immunodeficiency virus type 1 reverse transcriptase (Human immunodeficiency virus 1, UniProt Q72547); experiment: Inhibition of HIV-1 reverse transcriptase assessed as assessed as reduction of biotin-dUTP incorporation into […] incubated for 1 hrs by ELISA analysis
[13] = test system: Human immunodeficiency virus 1; experiment: Antiviral activity against NNRTI-resistant HIV-1 harboring F227L and V106A double mutant infected in human MT4 cells assessed as protection against virus-induced cytopathic effect incubated for 5 days by MTT assay; format: functional, organism-based; settings: Human immunodeficiency virus 1, MT4, 120 h
in vitro [14] = settings: human, MT4 cells; remark: listed apart in the source
Description: Selectivity index, ratio of CC50 for cytotoxicity against human MT4 cells to EC50 for antiviral activity against NNRTI-resistant HIV-1 harboring Y181C mutant infected in human MT4 cells

in vitro [15] = settings: human, MT4 cells; remark: listed apart in the source
Description: Selectivity index, ratio of CC50 for cytotoxicity against human MT4 cells to EC50 for antiviral activity against NNRTI-resistant HIV-1 harboring K103N and Y181C mutant infected in human MT4 cells

in vitro [16] = settings: human, MT4 cells; remark: listed apart in the source
Description: Selectivity index, ratio of CC50 for cytotoxicity against human MT4 cells to EC50 for antiviral activity against NNRTI-resistant HIV-1 harboring F227L and V106A mutant infected in human MT4 cells

in vitro [17] = settings: human, MT4 cells; remark: listed apart in the source
Description: Selectivity index, ratio of CC50 for cytotoxicity against human MT4 cells to EC50 for antiviral activity against NNRTI-resistant HIV-1 harboring Y188L mutant infected in human MT4 cells

in vitro [18] = settings: human, MT4 cells; remark: listed apart in the source
Description: Selectivity index, ratio of CC50 for cytotoxicity against human MT4 cells to EC50 for antiviral activity against NNRTI-resistant HIV-1 harboring L100I mutant infected in human MT4 cells

O=C1Nc2ccc(Cl)cc2[C@@](C#CC2CC2)(C(F)(F)F)O1 [EFAVIRENZ]
EC50 [1]: 0.425 µM
CC50 at 120 h [2]: > 6.35 µM
EC50 [3]: 0.00682 µM
EC50 [4]: 0.133 µM
EC50 [5]: 0.753 µM
EC50 [6]: 0.433 µM
EC50 [7]: 0.00787 µM

Cc1cc(C#N)cc(C)c1Oc1nc(Nc2ccc(C#N)cc2)nc2c1CN(C(=O)c1ccc(F)cc1)CC2
selectivity ratio (in vitro [8]): 270
CC50 at 120 h [2]: 6.51 µM
EC50 [9]: 0.00884 µM
EC50 [3]: 0.0241 µM
selectivity ratio (in vitro [10]): 736
selectivity ratio (in vitro [11]): 726
EC50 [4]: 0.00897 µM
IC50 [12]: 0.154 µM

Cc1ccnc2c1NC(=O)c1cccnc1N2C1CC1 [NEVIRAPINE]
EC50 [1]: > 15 µM
CC50 at 120 h [2]: > 15 µM
EC50 [9]: 0.155 µM
EC50 [3]: 0.205 µM
EC50 [4]: 7.79 µM
EC50 [13]: > 15 µM
EC50 [5]: 2.29 µM
EC50 [6]: > 15 µM
EC50 [7]: 8.95 µM

Cc1cc(C#N)cc(C)c1Oc1nc(Nc2ccc(C#N)cc2)nc2c1CN(C(=O)c1cccc(C(F)(F)F)c1)CC2
selectivity ratio (in vitro [8]): > 1450
CC50 at 120 h [2]: > 220 µM
EC50 [9]: 0.0277 µM
EC50 [3]: 0.152 µM
selectivity ratio (in vitro [10]): > 7930
selectivity ratio (in vitro [11]): > 6090
EC50 [4]: 0.0361 µM
IC50 [12]: 0.313 µM

C=CC(=O)N1CCc2nc(Nc3ccc(C#N)cc3)nc(Oc3c(C)cc(C#N)cc3C)c2C1
selectivity ratio (in vitro [14]): 235
selectivity ratio (in vitro [15]): 81
selectivity ratio (in vitro [8]): 246
EC50 [1]: 0.0507 µM
CC50 at 120 h [2]: 11.1 µM
EC50 [9]: 0.00812 µM
EC50 [3]: 0.0453 µM
selectivity ratio (in vitro [10]): 1370
selectivity ratio (in vitro [11]): 956
selectivity ratio (in vitro [16]): 83
EC50 [4]: 0.0117 µM
selectivity ratio (in vitro [17]): 220
EC50 [13]: 0.134 µM
EC50 [5]: 0.0442 µM
EC50 [6]: 0.138 µM
IC50 [12]: 0.071 µM
selectivity ratio (in vitro [18]): 252
EC50 [7]: 0.0474 µM

COc1ccc(C(=O)N2CCc3nc(Nc4ccc(C#N)cc4)nc(Oc4c(C)cc(C#N)cc4C)c3C2)cc1
selectivity ratio (in vitro [8]): 682
CC50 at 120 h [2]: 32.4 µM
EC50 [9]: 0.00676 µM
EC50 [3]: 0.0475 µM
selectivity ratio (in vitro [10]): 4800
selectivity ratio (in vitro [11]): 3390
EC50 [4]: 0.00956 µM
IC50 [12]: 0.211 µM

Cc1cc(C#N)cc(C)c1Oc1nc(Nc2ccc(C#N)cc2)nc2c1CN(S(=O)(=O)N(C)C)CC2
selectivity ratio (in vitro [8]): 2060
CC50 at 120 h [2]: 62.8 µM
EC50 [9]: 0.00794 µM
EC50 [3]: 0.0305 µM
selectivity ratio (in vitro [10]): 7910
selectivity ratio (in vitro [11]): 7670
EC50 [4]: 0.00819 µM
IC50 [12]: 0.084 µM

Cc1cc(C#N)cc(C)c1Oc1nc(Nc2ccc(C#N)cc2)nc2c1CNCC2
selectivity ratio (in vitro [14]): 435
selectivity ratio (in vitro [15]): 51
selectivity ratio (in vitro [8]): 3520
EC50 [1]: 0.0195 µM
CC50 at 120 h [2]: 19.7 µM
EC50 [9]: 0.00189 µM
EC50 [3]: 0.00561 µM
selectivity ratio (in vitro [10]): 10400
selectivity ratio (in vitro [11]): 6380
selectivity ratio (in vitro [16]): 145
EC50 [4]: 0.00309 µM
selectivity ratio (in vitro [17]): 1010
EC50 [13]: 0.136 µM
EC50 [5]: 0.0332 µM
EC50 [6]: 0.383 µM
IC50 [12]: 0.057 µM
selectivity ratio (in vitro [18]): 595
EC50 [7]: 0.0454 µM

Cc1cc(C#N)cc(C)c1Oc1nc(Nc2ccc(C#N)cc2)nc2c1CN(C(=O)c1ccc([N+](=O)[O-])cc1)CC2
selectivity ratio (in vitro [14]): > 4740
selectivity ratio (in vitro [15]): > 1470
selectivity ratio (in vitro [8]): > 6960
EC50 [1]: 0.0446 µM
CC50 at 120 h [2]: > 229 µM
EC50 [9]: 0.00765 µM
EC50 [3]: 0.0329 µM
selectivity ratio (in vitro [10]): > 30000
selectivity ratio (in vitro [11]): > 23400
selectivity ratio (in vitro [16]): > 848
EC50 [4]: 0.00981 µM
selectivity ratio (in vitro [17]): > 5130
EC50 [13]: 0.27 µM
EC50 [5]: 0.12 µM
EC50 [6]: 0.156 µM
IC50 [12]: 0.146 µM
selectivity ratio (in vitro [18]): > 1910
EC50 [7]: 0.0483 µM

COc1cccc(C(=O)N2CCc3nc(Nc4ccc(C#N)cc4)nc(Oc4c(C)cc(C#N)cc4C)c3C2)c1
selectivity ratio (in vitro [8]): 144
CC50 at 120 h [2]: 4.78 µM
EC50 [9]: 0.00732 µM
EC50 [3]: 0.0333 µM
selectivity ratio (in vitro [10]): 653
selectivity ratio (in vitro [11]): 597
EC50 [4]: 0.00801 µM
IC50 [12]: 0.18 µM

Cc1cc(C#N)cc(C)c1Oc1nc(Nc2ccc(C#N)cc2)nc2c1CN(C(=O)c1cccc([N+](=O)[O-])c1)CC2
selectivity ratio (in vitro [8]): > 5330
CC50 at 120 h [2]: > 229 µM
EC50 [9]: 0.008 µM
EC50 [3]: 0.043 µM
selectivity ratio (in vitro [10]): > 28600
selectivity ratio (in vitro [11]): > 32100
EC50 [4]: 0.00715 µM
IC50 [12]: 0.169 µM

Cc1cc(C#N)cc(C)c1Oc1nc(Nc2ccc(C#N)cc2)nc2c1CN(Cc1ccc(S(N)(=O)=O)cc1)CC2
selectivity ratio (in vitro [14]): > 6430
selectivity ratio (in vitro [15]): > 2460
selectivity ratio (in vitro [8]): > 5570
EC50 [1]: 0.0318 µM
CC50 at 120 h [2]: > 221 µM
EC50 [9]: 0.00662 µM
EC50 [3]: 0.0397 µM
selectivity ratio (in vitro [10]): > 33400
selectivity ratio (in vitro [11]): > 29200
selectivity ratio (in vitro [16]): > 1640
EC50 [4]: 0.00756 µM
selectivity ratio (in vitro [17]): > 6940
EC50 [13]: 0.135 µM
EC50 [5]: 0.0726 µM
EC50 [6]: 0.0899 µM
IC50 [12]: 0.126 µM
selectivity ratio (in vitro [18]): > 3040
EC50 [7]: 0.0344 µM

Cc1cc(C#N)cc(C)c1Oc1nc(Nc2ccc(C#N)cc2)nc2c1CN(Cc1ccccc1)CC2
selectivity ratio (in vitro [8]): 507
CC50 at 120 h [2]: 52.1 µM
EC50 [9]: 0.0191 µM
EC50 [3]: 0.103 µM
selectivity ratio (in vitro [10]): 2740
selectivity ratio (in vitro [11]): 1890
EC50 [4]: 0.0276 µM
IC50 [12]: 0.225 µM

COC(=O)c1ccc(C(=O)N2CCc3nc(Nc4ccc(C#N)cc4)nc(Oc4c(C)cc(C#N)cc4C)c3C2)cc1
selectivity ratio (in vitro [8]): > 817
CC50 at 120 h [2]: > 224 µM
EC50 [9]: 0.0211 µM
EC50 [3]: 0.274 µM
selectivity ratio (in vitro [10]): > 10600
selectivity ratio (in vitro [11]): > 4890
EC50 [4]: 0.0458 µM
IC50 [12]: 0.237 µM

Cc1cc(C#N)cc(C)c1Oc1nc(Nc2ccc(C#N)cc2)nc2c1CN(C(=O)c1ccc(C(F)(F)F)cc1)CC2
selectivity ratio (in vitro [8]): > 1670
CC50 at 120 h [2]: > 220 µM
EC50 [9]: 0.0288 µM
EC50 [3]: 0.132 µM
selectivity ratio (in vitro [10]): > 7640
selectivity ratio (in vitro [11]): > 5000
EC50 [4]: 0.044 µM
IC50 [12]: 0.297 µM

Cc1cc(C#N)cc(C)c1Oc1nc(Nc2ccc(C#N)cc2)nc2c1CN(C(=O)c1ccc(C#N)cc1)CC2
selectivity ratio (in vitro [8]): > 5090
CC50 at 120 h [2]: > 238 µM
EC50 [9]: 0.0103 µM
EC50 [3]: 0.0468 µM
selectivity ratio (in vitro [10]): > 23000
selectivity ratio (in vitro [11]): > 14700
EC50 [4]: 0.0162 µM
IC50 [12]: 0.154 µM

Cc1cc(C#N)cc(C)c1Oc1nc(Nc2ccc(C#N)cc2)nc2c1CN(C(=O)c1cccc(C#N)c1)CC2
selectivity ratio (in vitro [8]): > 5950
CC50 at 120 h [2]: > 238 µM
EC50 [9]: 0.00777 µM
EC50 [3]: 0.04 µM
selectivity ratio (in vitro [10]): > 30600
selectivity ratio (in vitro [11]): > 22800
EC50 [4]: 0.0104 µM
IC50 [12]: 0.161 µM

Cc1cc(C#N)cc(C)c1Oc1nc(Nc2ccc(C#N)cc2)nc2c1CN(C(=O)c1cccc(F)c1)CC2
selectivity ratio (in vitro [8]): 152
CC50 at 120 h [2]: 5.02 µM
EC50 [9]: 0.00912 µM
EC50 [3]: 0.033 µM
selectivity ratio (in vitro [10]): 551
selectivity ratio (in vitro [11]): 529
EC50 [4]: 0.0095 µM
IC50 [12]: 0.207 µM

Cc1cc(C#N)cc(C)c1Oc1nc(Nc2ccc(C#N)cc2)nc2c1CN(Cc1ccc(B(O)O)cc1)CC2
selectivity ratio (in vitro [8]): 211
CC50 at 120 h [2]: 11.8 µM
EC50 [9]: 0.0149 µM
EC50 [3]: 0.0557 µM
selectivity ratio (in vitro [10]): 787
selectivity ratio (in vitro [11]): 758
EC50 [4]: 0.0155 µM
IC50 [12]: 0.18 µM
